Data published in ChEMBL document CHEMBL1133494, “Inhibitors of bacterial tyrosyl tRNA synthetase: synthesis of four stereoisomeric analogues of the natural product SB-219383” (Bioorg Med Chem Lett, 2000).

How the values were obtained:
[1] = target: T1, Tyrosine--tRNA ligase, cytoplasmic (Homo sapiens) (UniProt P54577); test: Percentage inhibitory activity of compound against tyrosyl tRNA synthetase from mammalian cells was determined at 3 uM
T1 sequence (whole entry): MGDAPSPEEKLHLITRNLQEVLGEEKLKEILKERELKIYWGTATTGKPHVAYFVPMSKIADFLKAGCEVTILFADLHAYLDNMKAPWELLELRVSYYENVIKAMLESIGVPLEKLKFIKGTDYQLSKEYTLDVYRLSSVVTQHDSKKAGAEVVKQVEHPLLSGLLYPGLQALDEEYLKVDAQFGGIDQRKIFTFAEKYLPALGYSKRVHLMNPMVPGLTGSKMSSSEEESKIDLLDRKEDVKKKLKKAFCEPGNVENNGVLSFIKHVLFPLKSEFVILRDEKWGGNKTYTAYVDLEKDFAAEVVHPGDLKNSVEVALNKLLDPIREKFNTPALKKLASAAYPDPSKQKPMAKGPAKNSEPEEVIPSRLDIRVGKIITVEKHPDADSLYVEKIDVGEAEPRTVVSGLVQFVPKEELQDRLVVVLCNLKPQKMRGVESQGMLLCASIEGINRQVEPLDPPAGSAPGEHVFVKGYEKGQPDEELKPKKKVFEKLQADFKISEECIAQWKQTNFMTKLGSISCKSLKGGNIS

[2] = tested on: Tyrosyl-tRNA synthetase (Staphylococcus aureus); test: Inhibitory activity of compound against tyrosyl tRNA synthetase from Staphylococcus aureus was determined up to 3 uM; IA means Inactive

SMILES	inhibition [1] [%]	IC50 [2]
N[C@@H](Cc1ccc(O)cc1)C(=O)N[C@H](C(=O)O)[C@H]1[C@H](O)[C@@H](O)[C@@H](O)CN1O	11	–
N[C@@H](Cc1ccc(O)cc1)C(=O)N[C@@H](C(=O)O)[C@@H]1[C@@H](O)[C@H](O)[C@H](O)CN1O	–	Not Active
N[C@@H](Cc1ccc(O)cc1)C(=O)N[C@H](C(=O)O)[C@@H]1[C@@H](O)[C@H](O)[C@H](O)CN1O	–	Not Active
